{
  "source": "patent US12472214B2",
  "about": "“Bacterial strains, the compositions thereof and use thereof in a method for the treatment of vitamin D deficiency, and disorders associated therewith” (priority 2020, dated 2025)",
  "key": {"vitamin D receptor VDR": {"system": "vitamin D receptor VDR", "assay": "In vivo murine study: quantification of vitamin D receptor mRNA in ileal mucosa (quantitative PCR)", "set-up": "species or system mice (Cd1)", "settings": "mice", "procedure": "(§1) Mice were sacrificed 3 hours after the end of administration following fluorane anaesthesia and subsequent collection of blood by means of cardiac puncture and removal of the terminal ileum. The blood was centrifuged for the separation of serum which was then frozen until the subsequent dose of vitamin D3, in the form of 25-hydroxy-vitamin D (abbreviated as 25(OH)2D or 25(OH)D). The terminal ileum was first washed with PBS and then subjected to the collection of mucosa and the subsequent freezing in liquid nitrogen. mRNA was then extracted for the quantification of the expression of the vitamin D receptor at mucosal level.\nThe terminal ileum was first washed with PBS and then subjected to the collection of mucosa and the subsequent freezing in liquid nitrogen. mRNA was then extracted for the quantification of the expression of the vitamin D receptor at mucosal level. From an operational point of view, total RNA extraction from the mucosa was performed first, then a 30 ng aliquot of total RNA was reverse transcribed to cDNA and then subjected to a quantitative PCR with primers for the vitamin D receptor VDR (described by Wu et al. 2010). Below is the summary of the sequence of primers: […]\nRT-PCR analyses were also conducted using an “absolute” negative control and a housekeeping gene to normalise the results obtained (e.g. β-actin)."}, "[1]": {"assay": "In vivo murine study: 25(OH)D in serum by ELISA (bioavailability of vitamin D)", "set-up": "species or system mice (Cd1)", "settings": "mice; one-week daily administration (groups 3, 5, 6)", "procedure": "Mice (8-week old adult male Cd1) were enclosure-adapted and fed on a conventional diet. Mice were housed in cages and kept in a temperature-controlled environment (22±2° C.) with a 12-hour light/dark cycle with food for regular chow and tap water supplied ad libitum. After one week of acclimatisation, the animals were then randomly divided into 6 experimental groups of 6 mice each and each group was randomly assigned to one of the scheduled treatments (Table 1).\nThe strain Lactobacillus paracasei DG® CNCM I-1572 (in short, L paracasei DG®) was sub-cultured in MRS agar and a single colony was inoculated into culture broth and incubated for 18 hours at 37° C. under microaerophilic conditions. […] The optical density (OD 600 nm) was then measured and the suspension was diluted to OD=1.00. […] The decimal count of aliquots on selective medium allowed to quantify the live cell concentration equal to 1.6×10^9 CFU/ml of suspension (2.4×10^8 CFU/aliquot). […]\nas §1, with “The blood was centrifuged for the separation of serum which was then frozen until the subsequent dose of vitamin D3, in the form of 25-hydroxy-vitamin D (abbreviated as 25(OH)2D or 25(OH)D).” left out, “level. […]” for “level.”"}},
  "data": [
    {"smiles": "C=C1CC[C@H](O)C/C1=C/C=C1\\CCC[C@]2(C)[C@@H]([C@H](C)CCCC(C)C)CC[C@@H]12", "note": "[vitamin D3, cholecalciferol]", "values": [
      {"measurement": "vitamin D receptor mRNA expression level in ileal mucosa versus treatment-free control", "setting": "vitamin D receptor VDR; one-week daily administration (groups 3, 5, 6)", "result": "even more marked decrease"},
      {"measurement": "vitamin D receptor mRNA expression level in ileal mucosa versus treatment-free control", "setting": "vitamin D receptor VDR; vitamin D3 single dose (groups 2 and 4)", "result": "statistically significant decrease"},
      {"measurement": "change in serum levels of 25(OH)D versus treatment-free control group (statistical significance)", "setting": "[1]", "result": "did not generate any statistically significant change"}
    ]}
  ]
}
